Assay results from US20260028328A1, “HETEROARYL DERIVATIVES AS DDRs INHIBITORS” (CHIESI FARMACEUTICI S.P.A., priority 2022, published 2026).
Read-outs that look alike come from different tables or passages of the source.

What was measured:
[1] = target: DDR1 (Homo sapiens (Human), UniProt Q08345); assay: DDR1 binding assay (LanthaScreen Europium Kinase Binding assay)
Protocol: (§1) DDR1 and DDR2 binding assays were performed using Life Technologies LanthaScreen™ Europium Kinase Binding assay. The compounds were incubated with 5 nM DDR1 (Carna Biosciences) or 5 nM DDR2 (Life Technologies) for 1 h at rt in white 384-well OptiPlate (PerkinElmer), containing 20 nM or 10 nM Kinase Tracer 178 respectively and 2 nM Europium labelled anti-GST antibody (Life Technologies) in assay buffer (50 mM HEPES pH 7.5, 10 mM MgCI2, 1 mM EGTA and 0.01% BRIJ35). The ratio of fluorescence emission 665 nm/615 nm after excitation at 340 nm was obtained using the Tecan Spark 20M plate reader. IC50 values were determined in GraphPad Prism 7.0 software, using 4 parameter model: log(inhibitor) vs. response. IC50 values were converted in Ki using the Cheng-Prusoff equation (Ki=IC50/(1+[Tracer]/Kd).

[2] = target: DDR2 (Homo sapiens (Human), UniProt Q16832); assay: DDR2 binding assay (LanthaScreen Europium Kinase Binding assay)
Chain of DDR2 (Q16832 22-855): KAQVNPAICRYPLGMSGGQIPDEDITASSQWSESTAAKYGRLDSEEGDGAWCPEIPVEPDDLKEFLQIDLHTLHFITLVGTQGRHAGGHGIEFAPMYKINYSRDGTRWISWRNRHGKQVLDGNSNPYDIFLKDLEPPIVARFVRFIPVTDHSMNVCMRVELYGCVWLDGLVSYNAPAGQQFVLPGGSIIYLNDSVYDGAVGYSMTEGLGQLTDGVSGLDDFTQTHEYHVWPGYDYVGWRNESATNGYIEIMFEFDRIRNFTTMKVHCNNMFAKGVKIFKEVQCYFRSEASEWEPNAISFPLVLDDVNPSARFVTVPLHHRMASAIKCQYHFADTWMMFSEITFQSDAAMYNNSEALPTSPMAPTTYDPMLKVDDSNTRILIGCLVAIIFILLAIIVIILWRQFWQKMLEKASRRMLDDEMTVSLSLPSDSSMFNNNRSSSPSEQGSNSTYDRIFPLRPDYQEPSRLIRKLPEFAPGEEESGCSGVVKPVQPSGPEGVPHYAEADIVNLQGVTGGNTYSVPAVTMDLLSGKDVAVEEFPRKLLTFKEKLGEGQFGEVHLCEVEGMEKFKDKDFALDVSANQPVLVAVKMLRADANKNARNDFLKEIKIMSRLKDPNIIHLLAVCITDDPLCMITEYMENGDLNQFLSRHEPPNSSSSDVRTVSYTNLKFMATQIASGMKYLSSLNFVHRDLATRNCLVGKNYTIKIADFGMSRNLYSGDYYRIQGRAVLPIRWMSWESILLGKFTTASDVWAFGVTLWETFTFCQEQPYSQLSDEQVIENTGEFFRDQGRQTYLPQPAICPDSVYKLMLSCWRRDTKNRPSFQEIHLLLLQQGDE
Protocol: as §1

[3] = 5 nM DDR1, 20 nM Kinase Tracer 178, 1 h at rt, Ki from IC50 by Cheng-Prusoff, read-out: Ki DDR1
[4] = 5 nM DDR2, 10 nM Kinase Tracer 178, 1 h at rt, Ki from IC50 by Cheng-Prusoff, read-out: Ki DDR2

Chain of DDR1 (Q08345 19-913): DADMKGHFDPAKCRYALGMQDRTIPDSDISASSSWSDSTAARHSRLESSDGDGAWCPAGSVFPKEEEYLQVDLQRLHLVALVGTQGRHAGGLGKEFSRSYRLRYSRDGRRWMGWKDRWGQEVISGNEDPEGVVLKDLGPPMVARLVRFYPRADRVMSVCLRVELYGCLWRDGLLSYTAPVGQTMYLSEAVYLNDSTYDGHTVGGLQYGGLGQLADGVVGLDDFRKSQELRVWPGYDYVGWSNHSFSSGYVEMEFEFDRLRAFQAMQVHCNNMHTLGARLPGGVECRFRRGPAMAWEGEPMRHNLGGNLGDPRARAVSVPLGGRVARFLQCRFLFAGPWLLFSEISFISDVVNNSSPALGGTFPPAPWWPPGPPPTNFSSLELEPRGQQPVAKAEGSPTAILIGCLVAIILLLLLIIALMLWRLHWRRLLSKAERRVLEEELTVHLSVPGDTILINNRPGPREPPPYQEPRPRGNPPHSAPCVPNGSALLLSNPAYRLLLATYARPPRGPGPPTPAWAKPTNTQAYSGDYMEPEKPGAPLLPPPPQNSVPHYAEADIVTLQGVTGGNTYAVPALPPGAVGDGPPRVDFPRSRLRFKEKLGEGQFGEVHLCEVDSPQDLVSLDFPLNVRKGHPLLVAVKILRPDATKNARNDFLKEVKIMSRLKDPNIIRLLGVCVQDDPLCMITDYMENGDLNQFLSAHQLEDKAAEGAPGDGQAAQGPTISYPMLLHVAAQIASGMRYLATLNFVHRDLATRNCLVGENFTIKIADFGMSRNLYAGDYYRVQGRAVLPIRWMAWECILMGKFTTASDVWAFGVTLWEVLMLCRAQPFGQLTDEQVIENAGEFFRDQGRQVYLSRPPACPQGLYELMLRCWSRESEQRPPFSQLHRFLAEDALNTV

Molecule | Ki [1, 3] [nM] | Ki [2, 4] [nM] | Ki ([1]; same binding assay, numeric values, read-out: DDR1 Ki) [nM] | Ki ([2]; same binding assay, numeric values, read-out: DDR2 Ki) [nM]
4-methyl-3-((1-(pyrimidin-5-yl)azetidin-3-yl)thio)-N-(5-(trifluoromethyl)pyridin-3-yl)benzamide [Example 177] | 5 to 25 | 25 to 100 | – | –
Cc1ccc(C(=O)Nc2cncc(C(F)(F)F)c2)cc1NC1CN(C(=O)c2cnn3ccncc23)C1 [Compound C1, 4-methyl-3-((1-(pyrazolo[1,5-a]pyrazine-3-carbonyl)azetidin-3-yl)amino)-N-(5-(trifluoromethyl)pyridin-3-yl)benzamide, reference compound] | – | – | 114 | 311
Cc1ccc(C(=O)Nc2cncc(C(F)(F)F)c2)cc1NC1CN(c2cncnc2)C1 [Example 134, 4-methyl-3-((1-(pyrimidin-5-yl)azetidin-3-yl)amino)-N-(5-(trifluoromethyl)pyridin-3-yl)benzamide] | 5 to 25 | 25 to 100 | – | –
Cc1ccc(C(=O)Nc2cncc(C(F)(F)F)c2)cc1NC1CN(c2cnn3ccncc23)C1 [Example 140, 4-methyl-3-((1-(pyrazolo[1,5-a]pyrazin-3-yl)azetidin-3-yl)amino)-N-(5-(trifluoromethyl)pyridin-3-yl)benzamide] | < 5 | 5 to 25 | – | –
CNc1ccn2ncc(N3CC(Oc4cc(C(=O)Nc5cncc(C(F)(F)F)c5)ccc4C)C3)c2n1 [Example 141, 4-methyl-3-((1-(5-(methylamino)pyrazolo[1,5-a]pyrimidin-3-yl)azetidin-3-yl)oxy)-N-(5-(trifluoromethyl)pyridin-3-yl)benzamide] | < 5 | 5 to 25 | – | –
Cc1ccc(C(=O)Nc2cncc(C(F)(F)F)c2)cc1OC1CN(c2cnn3cccnc23)C1 [Example 142, 4-methyl-3-((1-(pyrazolo[1,5-a]pyrimidin-3-yl)azetidin-3-yl)oxy)-N-(5-(trifluoromethyl)pyridin-3-yl)benzamide] | < 5 | 5 to 25 | – | –
Cc1ccc(C(=O)Nc2cncc(C(F)(F)F)c2)cc1NC1CN(c2cncc(-c3cnn(C)c3)c2)C1 [Example 144, 4-methyl-3-((1-(5-(1-methyl-1H-pyrazol-4-yl)pyridin-3-yl)azetidin-3-yl)amino)-N-(5-(trifluoromethyl)pyridin-3-yl)benzamide] | < 5 | 5 to 25 | – | –
Cc1ccc(C(=O)Nc2cncc(C(F)(F)F)c2)cc1NC1CN(c2cnn3cccnc23)C1 [Example 148, 4-methyl-3-((1-(pyrazolo[1,5-a]pyrimidin-3-yl)azetidin-3-yl)amino)-N-(5-(trifluoromethyl)pyridin-3-yl)benzamide] | 5 to 25 | 5 to 25 | – | –
Cc1ccc(C(=O)Nc2cc(C(C)(C)C)no2)cc1NC1CN(c2cnn3ccncc23)C1 [Example 149, N-(3-(tert-butyl)isoxazol-5-yl)-4-methyl-3-((1-(pyrazolo[1,5-a]pyrazin-3-yl)azetidin-3-yl)amino)benzamide] | 5 to 25 | 5 to 25 | – | –
Cc1ccc(C(=O)Nc2cc(C(C)(C)C)on2)cc1NC1CN(c2cnn3ccncc23)C1 [Example 150, N-(5-(tert-butyl)isoxazol-3-yl)-4-methyl-3-((1-(pyrazolo[1,5-a]pyrazin-3-yl)azetidin-3-yl)amino)benzamide] | 5 to 25 | 25 to 100 | – | –
Cc1ccc(C(=O)Nc2cncc(C(F)(F)F)c2)cc1N(C)C1CN(c2cnn3ccncc23)C1 [Example 151, 4-methyl-3-(methyl(1-(pyrazolo[1,5-a]pyrazin-3-yl)azetidin-3-yl)amino)-N-(5-(trifluoromethyl)pyridin-3-yl)benzamide] | < 5 | 5 to 25 | – | –
CCc1cc(NC(=O)c2ccc(C)c(OC3CN(c4cnn5ccncc45)C3)c2)no1 [Example 152, N-(5-ethylisoxazol-3-yl)-4-methyl-3-((1-(pyrazolo[1,5-a]pyrazin-3-yl)azetidin-3-yl)oxy)benzamide] | 5 to 25 | 25 to 100 | – | –
Cc1ccc(C(=O)Nc2cncc(C(F)(F)F)c2)cc1C(C)C1CN(c2cnn3ccncc23)C1 (stereo not shown) [Example 175, 4-methyl-3-(1-(1-(pyrazolo[1,5-a]pyrazin-3-yl)azetidin-3-yl)ethyl)-N-(5-(trifluoromethyl)pyridin-3-yl)benzamide] | – | 5 to 25 | – | –
Cc1ccc(C(=O)Nc2cncc(C(F)(F)F)c2)cc1C(C)C1CN(c2cnn3ccncc23)C1 (stereo not shown) [Example 176, 4-methyl-3-(1-(1-(pyrazolo[1,5-a]pyrazin-3-yl)azetidin-3-yl)ethyl)-N-(5-(trifluoromethyl)pyridin-3-yl)benzamide] | – | 5 to 25 | – | –

Next, values leading:

Ki [1, 3] [nM] | Ki [2, 4] [nM] | Ki ([1]; same binding assay, numeric values, read-out: DDR1 Ki) [nM] | Ki ([2]; same binding assay, numeric values, read-out: DDR2 Ki) [nM] | Molecule
< 5 | 5 to 25 | – | – | Cc1ccc(C(=O)Nc2cncc(C(F)(F)F)c2)cc1OC1CN(c2cncnc2)C1 [Example 135, 4-methyl-3-((1-(pyrimidin-5-yl)azetidin-3-yl)oxy)-N-(5-(trifluoromethyl)pyridin-3-yl)benzamide]
< 5 | < 5 | – | – | Cc1ccc(C(=O)Nc2cncc(C(F)(F)F)c2)cc1OC1CN(c2cnn3ccncc23)C1 [Example 136, 4-methyl-3-((1-(pyrazolo[1,5-a]pyrazin-3-yl)azetidin-3-yl)oxy)-N-(5-(trifluoromethyl)pyridin-3-yl)benzamide]
< 5 | < 5 | – | – | Cc1ccc(C(=O)Nc2cncc(C(F)(F)F)c2)cc1OC1CN(c2cnc3ccccn23)C1 [Example 137, 3-((1-(imidazo[1,2-a]pyridin-3-yl)azetidin-3-yl)oxy)-4-methyl-N-(5-(trifluoromethyl)pyridin-3-yl)benzamide]
< 5 | 5 to 25 | – | – | CC(=O)Nc1ccn2ncc(N3CC(Oc4cc(C(=O)Nc5cncc(C(F)(F)F)c5)ccc4C)C3)c2n1 [Example 138, 3-((1-(5-acetamidopyrazolo[1,5-a]pyrimidin-3-yl)azetidin-3-yl)oxy)-4-methyl-N-(5-(trifluoromethyl)pyridin-3-yl)benzamide]
– | 5 to 25 | – | – | Cc1ccc(C(=O)Nc2cncc(C(F)(F)F)c2)cc1OC1CN(c2cncc(C(N)=O)c2)C1 [Example 139, 5-(3-(2-methyl-5-((5-(trifluoromethyl)pyridin-3-yl)carbamoyl)phenoxy)azetidin-1-yl)nicotinamide]
< 5 | < 5 | – | – | Cc1ccc(C(=O)Nc2cncc(C(F)(F)F)c2)cc1OC1CN(c2cncc(-c3cnn(C)c3)c2)C1 [Example 143, 4-methyl-3-((1-(5-(1-methyl-1H-pyrazol-4-yl)pyridin-3-yl)azetidin-3-yl)oxy)-N-(5-(trifluoromethyl)pyridin-3-yl)benzamide]
< 5 | < 5 | – | – | CC(=O)Nc1cncc(N2CC(Oc3cc(C(=O)Nc4cncc(C(F)(F)F)c4)ccc3C)C2)c1 [Example 145, 3-((1-(5-acetamidopyridin-3-yl)azetidin-3-yl)oxy)-4-methyl-N-(5-(trifluoromethyl)pyridin-3-yl)benzamide]
< 5 | < 5 | – | – | Cc1ccc(C(=O)Nc2cncc(C(F)(F)F)c2)cc1OC1CN(c2cnc3cnccn23)C1 [Example 146, 3-((1-(imidazo[1,2-a]pyrazin-3-yl)azetidin-3-yl)oxy)-4-methyl-N-(5-(trifluoromethyl)pyridin-3-yl)benzamide]
< 5 | < 5 | – | – | Cc1ccc(C(=O)Nc2cncc(C(F)(F)F)c2)cc1NC1CN(c2cnc3cnccn23)C1 [Example 147, 3-((1-(imidazo[1,2-a]pyrazin-3-yl)azetidin-3-yl)amino)-4-methyl-N-(5-(trifluoromethyl)pyridin-3-yl)benzamide]
